According to patent US9440930B2, “Substituted bicyclic dihydropyrimidinones and their use as inhibitors of neutrophil elastase activity” (Boehringer Ingelheim International GmbH, priority 2014, dated 2016):
Values after ≈ are worked out from the molar mass of the structure shown.

Assays:
[1] = target: T1, Human neutrophil elastase (Homo sapiens, UniProt P08246); assay: Human Neutrophil Elastase Assay; format: biochemical; details: substrate MeOSuc-Ala-Ala-Pro-Val-AMC 250 μM, pH 7.5, room temperature
T1 construct: purchased Calbiochem 324681
T1 sequence (P08246 30-247 limits assumed): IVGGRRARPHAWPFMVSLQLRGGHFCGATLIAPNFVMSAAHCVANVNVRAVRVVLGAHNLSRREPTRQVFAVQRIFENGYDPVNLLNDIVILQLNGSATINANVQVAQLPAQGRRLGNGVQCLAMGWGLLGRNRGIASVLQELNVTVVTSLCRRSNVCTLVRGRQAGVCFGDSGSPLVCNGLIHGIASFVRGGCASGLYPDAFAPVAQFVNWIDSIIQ
From the text: Human Neutrophil Elastase Assay

[2] = target: T2, neutrophil elastase in human plasma (Homo sapiens, UniProt P08246); assay: Neutrophil elastase inhibitory activity in human plasma; format: biochemical; details: zymosan-stimulated human plasma, substrate MeOSuc-Ala-Ala-Pro-Val-AMC 250 μM
T2 construct: The stimulated blood is centrifuged to generate the neutrophil elastase enriched plasma; from tissue; host or cells: plasma from zymosan-stimulated citrated whole blood of healthy human donors
T2 sequence (P08246 30-267): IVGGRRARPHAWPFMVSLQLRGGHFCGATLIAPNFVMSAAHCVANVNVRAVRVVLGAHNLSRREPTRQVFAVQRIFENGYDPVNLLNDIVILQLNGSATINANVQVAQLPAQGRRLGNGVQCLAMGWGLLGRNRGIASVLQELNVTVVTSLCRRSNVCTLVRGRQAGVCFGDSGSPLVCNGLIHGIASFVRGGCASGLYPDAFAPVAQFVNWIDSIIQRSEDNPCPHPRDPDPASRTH
Protocol: Assay for the Determination of Neutrophil Elastase Inhibitory Activity in Human Plasma
Citrated blood from human healthy donors is mixed with zymosan suspension and incubated at room temperature. This leads to the stimulation of neutrophils and the release of neutrophil elastase into the plasma. The stimulated blood is centrifuged to generate the neutrophil elastase enriched plasma.
• A single 45 ml blood sample is taken into a 50 ml tube containing citrate (3.13%, 5 mL) and the tube is gently inverted 4 times. • Immediately after blood sampling, zymosan working solution (5 mL) is added. • After the addition of zymosan working solution, the tubes are capped, mixed gently and incubated at 22° C. for 15 min on a shaker at 20 rpm. • Make 10 ml aliquots after the incubation time. • Centrifuge the 15 ml tubes at 800 g for 15 min at 4° C. in a Jouan centrifuge. • Harvest the plasma and make 1-5 ml aliquots. • Store the plasma at −80° C.
A dose response curve is generated to calculate the EC50 of the inhibitor. The analysis of the data is performed by the calculation of the percentage of fluorescence in the presence of the test compound compared to the fluorescence of the vehicle control after subtracting the background fluorescence: An inhibitor of the neutrophil elastase enzyme will give values between 100% control (no inhibition) and 0% control (complete inhibition).

[3] = Aqueous solubility; format: physicochemical; details: McIlvaine buffer pH 6.8 containing 2.5% DMSO, kinetic from dmso stock, McIlvaine buffer pH 6.8, 2.5% DMSO, 24 h shaking
Protocol: Assay for Determination of Aqueous Solubility
Starting from a 10 min DMSO stock solution, aliquots are diluted with acetonitrile/water (1/1) and McIlvaine buffer pH 6.8, respectively. After 24 h of shaking, the solutions or suspensions are filtered and analyzed by LC-UV. The amount dissolved in buffer is compared to the amount dissolved in the acetonitrile/water (1/1) solution. Solubility is measured from 0.001 to 0.125 mg/ml at a DMSO concentration of 2.5%. If more than 90% of the compound is dissolved in buffer, the value is marked with “>”.

[4] = target: T3, cytochrome P450 2C9 (Homo sapiens, UniProt P11712); assay: Cytochrome P450 2C9 inhibition; format: in vitro ADME; details: human liver microsomes, Diclofenac hydroxylation
T3 construct: is assayed at 37° C. with human liver microsomes; from tissue; host or cells: human liver microsomes
From the text: Assay for Determination of Cytochrome P450 2C9 Inhibition

T3 sequence (P11712 whole entry): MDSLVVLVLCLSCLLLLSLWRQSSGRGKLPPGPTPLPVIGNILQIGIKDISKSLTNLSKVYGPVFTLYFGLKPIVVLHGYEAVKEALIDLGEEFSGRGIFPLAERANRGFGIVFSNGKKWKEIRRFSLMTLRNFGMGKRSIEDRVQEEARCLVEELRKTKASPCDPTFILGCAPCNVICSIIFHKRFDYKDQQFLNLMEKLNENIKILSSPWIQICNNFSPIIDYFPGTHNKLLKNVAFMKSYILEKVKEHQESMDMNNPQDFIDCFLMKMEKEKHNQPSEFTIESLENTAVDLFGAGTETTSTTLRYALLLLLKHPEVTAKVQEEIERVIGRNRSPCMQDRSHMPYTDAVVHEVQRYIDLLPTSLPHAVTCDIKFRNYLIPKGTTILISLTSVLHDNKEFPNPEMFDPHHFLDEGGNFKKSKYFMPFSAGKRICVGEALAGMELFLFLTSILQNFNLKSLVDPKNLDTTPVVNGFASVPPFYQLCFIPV

IC50 [1]: < 1 nM
EC50 [2]: 1 nM
solubility at 24 h [3]: 55 µg/mL (≈ 113 µM)
IC50 [4]: > 50000 nM
SMILES: CN1C(=O)N(c2cccc(C(F)(F)F)c2)C2=C(C(=O)CCC2)[C@H]1c1ccc(C#N)cc1[S+](C)[O-] (single isomer, unassigned) [Example 2.2A, 3-Methanesulfinyl-4-[3-methyl-2,5-dioxo-1-(3-trifluoromethyl-phenyl)-1,2,3,4,5,6,7,8-octahydro-quinazolin-4-yl]-benzonitrile]
